Results on nine compounds are retold here after ChEMBL document CHEMBL1135193, “N-[2-(Indan-1-yl)-3-mercapto-propionyl] amino acids as highly potent inhibitors of the three vasopeptidases (NEP, ACE, ECE): In vitro and In vivo activities” (Bioorg Med Chem Lett, 2002).

The target in one test is T1, Neprilysin (Mus musculus) (UniProt Q61391).
T1 sequence (whole entry): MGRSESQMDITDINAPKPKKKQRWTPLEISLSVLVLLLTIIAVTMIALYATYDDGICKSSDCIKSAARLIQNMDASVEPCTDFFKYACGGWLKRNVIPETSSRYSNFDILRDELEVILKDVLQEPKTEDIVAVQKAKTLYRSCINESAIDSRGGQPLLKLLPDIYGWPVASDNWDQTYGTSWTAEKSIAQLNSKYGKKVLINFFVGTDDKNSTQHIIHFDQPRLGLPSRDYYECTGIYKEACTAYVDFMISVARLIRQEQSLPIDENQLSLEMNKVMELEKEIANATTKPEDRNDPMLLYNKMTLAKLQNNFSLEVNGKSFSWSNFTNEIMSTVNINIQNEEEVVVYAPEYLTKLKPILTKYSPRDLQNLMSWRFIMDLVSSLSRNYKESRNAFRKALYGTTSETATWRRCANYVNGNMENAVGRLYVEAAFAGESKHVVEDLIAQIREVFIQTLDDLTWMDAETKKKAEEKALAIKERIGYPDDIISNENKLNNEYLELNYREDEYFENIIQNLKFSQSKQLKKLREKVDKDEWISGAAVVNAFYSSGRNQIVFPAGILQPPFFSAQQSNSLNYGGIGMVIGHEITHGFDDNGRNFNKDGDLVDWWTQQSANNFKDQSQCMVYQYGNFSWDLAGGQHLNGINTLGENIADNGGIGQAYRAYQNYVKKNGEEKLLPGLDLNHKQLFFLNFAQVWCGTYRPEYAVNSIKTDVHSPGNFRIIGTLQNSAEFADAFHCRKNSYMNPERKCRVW
The test can be described thus: In vivo inhibition of lung Neutral endopeptidase in mice was determined by blockage of enzyme at 25 mg/kg iv of compound. It counts as organism-based. Further details: dose 25 mg/kg.
As a reminder, the inhibition is the share of the control response that was lost under treatment. In turn, `O=C(O)[C@H](Cc1c[nH]c2ccccc12)NC(=O)[C@@H](CS)[C@H]1CCc2cc(Br)ccc21` gave an inhibition of 70%.

The target in the next test is T2, Neprilysin (Oryctolagus cuniculus, UniProt P08049).
T2 sequence (P08049 whole entry): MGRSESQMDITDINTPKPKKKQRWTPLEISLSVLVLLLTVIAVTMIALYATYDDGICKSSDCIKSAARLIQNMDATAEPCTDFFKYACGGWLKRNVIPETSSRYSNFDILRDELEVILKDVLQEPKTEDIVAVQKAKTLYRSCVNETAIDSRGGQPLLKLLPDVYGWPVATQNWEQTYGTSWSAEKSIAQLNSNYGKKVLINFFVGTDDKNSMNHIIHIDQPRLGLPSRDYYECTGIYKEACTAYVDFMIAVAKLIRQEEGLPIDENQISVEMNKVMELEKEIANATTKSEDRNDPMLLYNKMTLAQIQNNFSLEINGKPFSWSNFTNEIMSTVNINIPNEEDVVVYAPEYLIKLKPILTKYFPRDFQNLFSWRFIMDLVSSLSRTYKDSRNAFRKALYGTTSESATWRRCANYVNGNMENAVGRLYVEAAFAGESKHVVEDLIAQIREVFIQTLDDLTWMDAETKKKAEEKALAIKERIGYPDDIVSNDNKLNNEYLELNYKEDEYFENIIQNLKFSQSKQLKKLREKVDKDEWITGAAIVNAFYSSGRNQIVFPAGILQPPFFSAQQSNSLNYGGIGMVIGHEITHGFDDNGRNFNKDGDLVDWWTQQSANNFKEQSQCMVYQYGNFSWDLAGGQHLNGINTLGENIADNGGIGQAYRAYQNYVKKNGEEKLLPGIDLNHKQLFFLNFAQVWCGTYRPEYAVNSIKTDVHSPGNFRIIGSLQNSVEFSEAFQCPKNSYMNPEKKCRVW
Put plainly: In vitro inhibition of Neutral endopeptidase.
For orientation: Ki means a measure of affinity in units of concentration, obtained from inhibition or displacement. As for `CCOc1ccc2c(c1)CCC2C(CS)C(=O)NC(Cc1c[nH]c2ccccc12)C(=O)O` (stereo unspecified), affinity was put at a Ki of 8 nM.
Still for that read-out and setting: the figure for `O=C(O)[C@H](Cc1c[nH]c2ccccc12)NC(=O)[C@H](CS)[C@H]1CCc2cc(Br)ccc21` is 1.8 nM; for `COc1cccc2c1CCC2C(CS)C(=O)NC(Cc1c[nH]c2ccccc12)C(=O)O` (stereo unspecified) it is 16 nM; for `O=C(O)C(Cc1c[nH]c2ccccc12)NC(=O)C(CS)C1CCc2cc(O)ccc21` (stereo unspecified) it is 4 nM.
Same read-out and setting: the figure for `COc1ccc2c(c1)CCC2C(CS)C(=O)NC(Cc1c[nH]c2ccccc12)C(=O)O` (stereo unspecified) is 5 nM; for `CSc1ccc2c(c1)CCC2C(CS)C(=O)NC(Cc1c[nH]c2ccccc12)C(=O)O` (stereo unspecified) it is 6 nM.
On the same count and under the same terms, the figure for `COc1ccc2c(c1)CC[C@@H]2[C@H](CS)C(=O)N[C@@H](Cc1c[nH]c2ccccc12)C(=O)O` is 2.7 nM.
Compound `O=C(O)[C@H](Cc1c[nH]c2ccccc12)NC(=O)[C@H](CS)[C@@H]1CCc2cc(Br)ccc21` showed a Ki of 13 nM.
The same measure, in the same setting: under `O=C(O)[C@H](Cc1c[nH]c2ccccc12)NC(=O)[C@@H](CS)[C@H]1CCc2cc(Br)ccc21` stands 3.8 nM.

A further test has as its system Rattus norvegicus. Put plainly: Decrease of mean arterial pressure (MAP) on iv administration of sodium salt at 30 mg/kg at 5 or 15 min prior to the big ET-1 challenge in wistar rats. It counts as functional, Artery.
Take `O=C(O)[C@H](Cc1c[nH]c2ccccc12)NC(=O)[C@@H](CS)[C@H]1CCc2cc(Br)ccc21`: the MAP is -15.2 mmHg.

Another test deals with T3, Angiotensin-converting enzyme (Rattus norvegicus, UniProt P47820).
T3 sequence (P47820 whole entry): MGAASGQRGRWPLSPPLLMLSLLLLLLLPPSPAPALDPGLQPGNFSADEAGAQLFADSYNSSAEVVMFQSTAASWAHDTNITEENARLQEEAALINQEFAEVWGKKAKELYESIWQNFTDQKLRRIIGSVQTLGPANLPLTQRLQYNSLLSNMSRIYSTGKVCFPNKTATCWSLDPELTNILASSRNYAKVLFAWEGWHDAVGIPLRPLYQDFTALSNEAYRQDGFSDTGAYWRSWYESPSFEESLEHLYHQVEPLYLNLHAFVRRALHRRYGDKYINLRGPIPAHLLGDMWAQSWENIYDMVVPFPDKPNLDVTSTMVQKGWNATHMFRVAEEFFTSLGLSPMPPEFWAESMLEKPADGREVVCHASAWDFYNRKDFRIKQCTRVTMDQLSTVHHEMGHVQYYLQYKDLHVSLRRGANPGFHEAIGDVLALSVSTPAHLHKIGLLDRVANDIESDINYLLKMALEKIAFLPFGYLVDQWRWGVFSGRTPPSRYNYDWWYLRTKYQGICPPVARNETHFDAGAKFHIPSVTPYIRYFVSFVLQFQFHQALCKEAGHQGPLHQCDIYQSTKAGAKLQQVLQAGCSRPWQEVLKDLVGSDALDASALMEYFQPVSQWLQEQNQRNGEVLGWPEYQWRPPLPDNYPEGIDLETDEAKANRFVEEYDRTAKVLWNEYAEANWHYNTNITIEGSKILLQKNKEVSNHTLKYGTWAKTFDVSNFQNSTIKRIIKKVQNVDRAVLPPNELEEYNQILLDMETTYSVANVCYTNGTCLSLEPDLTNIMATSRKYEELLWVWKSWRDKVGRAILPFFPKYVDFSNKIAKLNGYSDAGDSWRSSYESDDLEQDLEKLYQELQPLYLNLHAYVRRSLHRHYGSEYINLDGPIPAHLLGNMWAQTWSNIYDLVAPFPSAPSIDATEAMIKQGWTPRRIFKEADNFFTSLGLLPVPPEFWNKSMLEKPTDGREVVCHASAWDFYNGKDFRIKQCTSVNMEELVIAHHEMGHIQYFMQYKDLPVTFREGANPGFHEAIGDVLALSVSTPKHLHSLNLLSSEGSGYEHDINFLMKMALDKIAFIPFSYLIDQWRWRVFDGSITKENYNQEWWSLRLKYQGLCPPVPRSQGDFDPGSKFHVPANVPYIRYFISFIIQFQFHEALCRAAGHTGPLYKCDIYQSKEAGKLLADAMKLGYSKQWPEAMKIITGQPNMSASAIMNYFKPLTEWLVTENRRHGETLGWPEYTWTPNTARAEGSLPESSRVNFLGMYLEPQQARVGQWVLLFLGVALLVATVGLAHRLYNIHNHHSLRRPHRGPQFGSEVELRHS
The test can be described thus: In vitro inhibition of Angiotensin I converting enzyme.
As to `CCOc1ccc2c(c1)CCC2C(CS)C(=O)NC(Cc1c[nH]c2ccccc12)C(=O)O` (stereo unspecified), the Ki is 18 nM.
On the same count and under the same terms, the figure for `O=C(O)[C@H](Cc1c[nH]c2ccccc12)NC(=O)[C@H](CS)[C@H]1CCc2cc(Br)ccc21` is 55 nM.
Still for that read-out and setting: under `COc1cccc2c1CCC2C(CS)C(=O)NC(Cc1c[nH]c2ccccc12)C(=O)O` (stereo unspecified) stands 8 nM; under `O=C(O)C(Cc1c[nH]c2ccccc12)NC(=O)C(CS)C1CCc2cc(O)ccc21` (stereo unspecified), 7 nM; under `COc1ccc2c(c1)CCC2C(CS)C(=O)NC(Cc1c[nH]c2ccccc12)C(=O)O` (stereo unspecified), 11 nM.
Still for that read-out and setting: the figure for `CSc1ccc2c(c1)CCC2C(CS)C(=O)NC(Cc1c[nH]c2ccccc12)C(=O)O` (stereo unspecified) is 14 nM.
Consider `COc1ccc2c(c1)CC[C@@H]2[C@H](CS)C(=O)N[C@@H](Cc1c[nH]c2ccccc12)C(=O)O`, for which the Ki was determined as 4.6 nM.
Still for that read-out and setting: the figure for `O=C(O)[C@H](Cc1c[nH]c2ccccc12)NC(=O)[C@H](CS)[C@@H]1CCc2cc(Br)ccc21` is 66 nM; for `O=C(O)[C@H](Cc1c[nH]c2ccccc12)NC(=O)[C@@H](CS)[C@H]1CCc2cc(Br)ccc21` it is 4.1 nM.

In another test the test system is Rattus norvegicus. Put plainly: Increase in mean arterial pressure (MAP) in anesthetized male wistar rats on iv injection of 1 nmol/kg big ET-1. It counts as functional, Artery.
`O=C(O)[C@H](Cc1c[nH]c2ccccc12)NC(=O)[C@@H](CS)[C@H]1CCc2cc(Br)ccc21`: the MAP is on record as 57.2 mmHg.

Another test concerns Rattus norvegicus. The test can be described thus: Increase in MAP on intravenous injection of AI in vehicle at 1 nmol/kg iv in male wistar rats. It counts as functional.
With `O=C(O)[C@H](Cc1c[nH]c2ccccc12)NC(=O)[C@@H](CS)[C@H]1CCc2cc(Br)ccc21`, the MAP was 15 mmHg.

A further test deals with T4, Endothelin-converting enzyme 1 (Homo sapiens, UniProt P42892).
T4 sequence (P42892 whole entry): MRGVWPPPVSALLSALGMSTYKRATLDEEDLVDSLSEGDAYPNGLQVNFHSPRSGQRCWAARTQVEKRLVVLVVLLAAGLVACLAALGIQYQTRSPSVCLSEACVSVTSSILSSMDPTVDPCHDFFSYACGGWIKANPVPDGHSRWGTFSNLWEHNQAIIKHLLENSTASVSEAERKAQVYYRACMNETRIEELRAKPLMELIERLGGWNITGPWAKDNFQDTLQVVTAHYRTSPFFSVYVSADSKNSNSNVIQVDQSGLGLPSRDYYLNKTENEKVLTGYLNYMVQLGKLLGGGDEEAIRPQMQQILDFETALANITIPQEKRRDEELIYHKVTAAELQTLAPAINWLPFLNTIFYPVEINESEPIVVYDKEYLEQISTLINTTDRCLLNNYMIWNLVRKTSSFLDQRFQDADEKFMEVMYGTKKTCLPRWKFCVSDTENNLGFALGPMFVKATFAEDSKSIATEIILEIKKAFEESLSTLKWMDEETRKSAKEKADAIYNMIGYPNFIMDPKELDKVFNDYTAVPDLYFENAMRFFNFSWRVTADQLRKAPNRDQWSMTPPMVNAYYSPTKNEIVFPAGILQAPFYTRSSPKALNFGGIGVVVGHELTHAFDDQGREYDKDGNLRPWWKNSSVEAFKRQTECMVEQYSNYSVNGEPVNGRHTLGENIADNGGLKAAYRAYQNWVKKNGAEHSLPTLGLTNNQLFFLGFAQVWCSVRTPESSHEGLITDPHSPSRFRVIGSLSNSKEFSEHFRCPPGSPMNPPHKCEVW
The test can be described thus: In vitro inhibition of endothelin converting enzyme.
Turning to `CCOc1ccc2c(c1)CCC2C(CS)C(=O)NC(Cc1c[nH]c2ccccc12)C(=O)O` (stereo unspecified), the Ki is 47 nM.
The same measure, in the same setting: under `O=C(O)[C@H](Cc1c[nH]c2ccccc12)NC(=O)[C@H](CS)[C@H]1CCc2cc(Br)ccc21` stands 18 nM; under `COc1cccc2c1CCC2C(CS)C(=O)NC(Cc1c[nH]c2ccccc12)C(=O)O` (stereo unspecified), 760 nM; under `O=C(O)C(Cc1c[nH]c2ccccc12)NC(=O)C(CS)C1CCc2cc(O)ccc21` (stereo unspecified), 90 nM.
The compound `COc1ccc2c(c1)CCC2C(CS)C(=O)NC(Cc1c[nH]c2ccccc12)C(=O)O` (stereo unspecified) showed a Ki of 22 nM.
On the same count and under the same terms, under `CSc1ccc2c(c1)CCC2C(CS)C(=O)NC(Cc1c[nH]c2ccccc12)C(=O)O` (stereo unspecified) stands 35 nM.
Take `COc1ccc2c(c1)CC[C@@H]2[C@H](CS)C(=O)N[C@@H](Cc1c[nH]c2ccccc12)C(=O)O`: the Ki worked out at 100 nM.
On the same count and under the same terms, under `O=C(O)[C@H](Cc1c[nH]c2ccccc12)NC(=O)[C@H](CS)[C@@H]1CCc2cc(Br)ccc21` stands 90 nM.
The compound `O=C(O)[C@H](Cc1c[nH]c2ccccc12)NC(=O)[C@@H](CS)[C@H]1CCc2cc(Br)ccc21` displayed a Ki of 28 nM.
